Experimental data reported in patent US20190127413A1, “Compositions and Methods for Non-Toxic Delivery of Antiprogestins” (Repros Therapeutics Inc., priority 2010, published 2019).
“Also recorded” adds a separate entry of the source.

How the values were obtained:
[1] = Cmax after vaginal administration extrapolated from beagles to humans; type: in vivo; conditions: for predicted Cmax for vaginal administration as percentage of the same dose administered orally: humans
Method: The maximum circulating concentrations (Cmax) of CDB-4124 obtained following vaginal administration to beagles were extrapolated to humans for the 12.5 mg, 25 mg and 50 mg doses actually administered during the Phase III clinical studies.

[2] = system: progesterone-induced endometrial proliferation; experiment: Anti-Clauberg study, vaginal versus oral (McPhail index); type: in vivo, rabbits
Method: Another anti-Clauberg study was run in which immature estradiol-primed rabbits were administered progesterone alone (vehicle control) or were co-administered progesterone and three doses of CDB-4124 by either vaginal or oral administration. The inhibition of progesterone-induced endometrial proliferation at each dose was assayed. FIG. 3 illustrates the decrease in the McPhail index following increasing doses of CDB-4124 administered by either route. Maximal inhibition (i.e. a decrease in the McPhail index to 1.5) occurred at 0.2 mg/kg CDB-4124 when administered vaginally, compared to 0.8 mg/kg when administered orally.

[3] = Oral versus vaginal pharmacokinetics in beagles; type: in vivo; conditions: 25 mg; for metabolism after peak plasma concentration: oral, micronized powder; for metabolism / peak plasma concentration (Cmax): vaginal suppository
Method: Beagles were administered 25 mg of CDB-4124 or CDB-4453 (the monodemethylated metabolite of CDB-4124) formulated as either a micronized powder or a vaginal suppository. […] Moreover, systemic exposure of the drug is much lower when administered locally (compare AUC for CDB-4124 and CDB-4453 when administered vaginally vs. orally).

[4] = Clinical trials of daily oral CDB-4124 (Proellex) capsules: liver toxicity, liver enzymes; type: in vivo, human
Method: The maximum concentrations of CDB-4124 and its mono-demethylated metabolite (CDB-4453) for the 12.5 mg dose were 25% of the 50 mg dose. All liver toxicities resolved in those women that returned for safety follow-ups, including those subjects that developed liver-associated serious adverse effects (SAEs).
To date, over 600 patients, including women with confirmed cases of endometriosis or uterine fibroids, have participated in double blind and open label clinical trials in which patients were administered daily oral capsules containing doses of 12.5 mg, 25 mg or 50 mg CDB-4124 (Proellex) for over one month. Of these patients, about 500 received Proellex and about 130 received a placebo. Of the patients receiving Proellex, about 190 received a dose of 50 mg CDB-4124 per day, about 260 received a dose of 25 mg CDB-4124 per day and about 55 received a dose of 12.5 mg per day.
Liver enzymes were frequently monitored in participating subjects. The liver enzyme level at which the clinical trials would be discontinued was set at an increase in liver aminotransferases greater than, or equal to three times the Upper Limit of Normal (≥3×ULN).
Of the nine subjects with a confirmed increase in liver enzymes ≥3×ULN, seven were severe enough elevations to be reported to the FDA as SAEs. One of these seven subjects had been receiving a dose of 25 mg CDB-4124 per day; the remaining six subjects had been receiving a dose of 50 mg CDB-4124 per day. Liver enzymes ≥3×ULN persisted in five of the nine subjects with a confirmed increase in liver enzymes ≥3×ULN. These five subjects had previously been dosed with the 50 mg dose. One of these subjects is receiving oral medication for treatment of their liver condition. Clinical trials involving CDB-4124 at all doses were voluntarily suspended as a result of these SAEs and were subsequently placed on clinical hold by the United States Food and Drug Administration for safety reasons.

[5] = system: progesterone-induced endometrial proliferation; experiment: Anti-Clauberg study, subcutaneous versus oral; type: in vivo, rabbits
From the text: To determine whether the low circulating levels of CDB-4124 when administered locally could have any impact predictive of efficacy, an anti-Clauberg study was run in which immature estradiol-primed rabbits were coadministered progesterone and various doses of CDB-4124 by either subcutaneous or oral administration. At least 3 different highly trained individuals evaluated the rabbit uterus for glandular growth, for complexity and overall progesterone-induced “development”. The inhibition (by percentage) of progesterone-induced endometrial proliferation at each dose was assayed. […] However, maximal inhibition required a 8-fold increase in dosage when administered orally (i.e. 8 mg/kg). Importantly 8 mg/kg corresponds closely to the 50 mg/day dose of CDB-4124 administered to the female subjects described in Example 4.

[6] = Pharmacokinetic studies on participating clinical trial subjects, oral CDB-4124; type: in vivo, human; conditions: for maximum concentration for the 12.5 mg dose as percentage of the 50 mg dose: oral CDB-4124, parent and mono-demethylated metabolite
Method: (§1) Pharmacokinetic studies performed on participating subjects detected a high Cmax and a Tmax at 1-2 hours following administration. […] Metabolism of CDB-4124 by the liver provides the opportunity for liver damage and greatly reduces the concentration of the antiprogestin before it reaches the systemic circulation. Thus, alternative routes of administration of antiprogestins that avoid first pass metabolism such as, without limitation, intravenous, intramuscular, and sublingual, should allow antiprogestins to be absorbed directly into the systemic circulation and thereby provide a method for treating progestone-dependent conditions while avoiding liver toxicity. Administration routes which avoid first pass metabolism may also require less drug per dose to achieve the same therapeutic benefit relative to oral administration.

[7] = system: primary cultures of human and animal hepatocytes; experiment: Metabolism in primary cultures of hepatocytes; type: in vitro ADME; conditions: primary hepatocyte cultures
Method: as §1

glucocorticoid receptor = molecular target: T1, glucocorticoid receptor (Homo sapiens, UniProt P04150); conditions: cited from earlier work
T1 sequence (P04150 1-777): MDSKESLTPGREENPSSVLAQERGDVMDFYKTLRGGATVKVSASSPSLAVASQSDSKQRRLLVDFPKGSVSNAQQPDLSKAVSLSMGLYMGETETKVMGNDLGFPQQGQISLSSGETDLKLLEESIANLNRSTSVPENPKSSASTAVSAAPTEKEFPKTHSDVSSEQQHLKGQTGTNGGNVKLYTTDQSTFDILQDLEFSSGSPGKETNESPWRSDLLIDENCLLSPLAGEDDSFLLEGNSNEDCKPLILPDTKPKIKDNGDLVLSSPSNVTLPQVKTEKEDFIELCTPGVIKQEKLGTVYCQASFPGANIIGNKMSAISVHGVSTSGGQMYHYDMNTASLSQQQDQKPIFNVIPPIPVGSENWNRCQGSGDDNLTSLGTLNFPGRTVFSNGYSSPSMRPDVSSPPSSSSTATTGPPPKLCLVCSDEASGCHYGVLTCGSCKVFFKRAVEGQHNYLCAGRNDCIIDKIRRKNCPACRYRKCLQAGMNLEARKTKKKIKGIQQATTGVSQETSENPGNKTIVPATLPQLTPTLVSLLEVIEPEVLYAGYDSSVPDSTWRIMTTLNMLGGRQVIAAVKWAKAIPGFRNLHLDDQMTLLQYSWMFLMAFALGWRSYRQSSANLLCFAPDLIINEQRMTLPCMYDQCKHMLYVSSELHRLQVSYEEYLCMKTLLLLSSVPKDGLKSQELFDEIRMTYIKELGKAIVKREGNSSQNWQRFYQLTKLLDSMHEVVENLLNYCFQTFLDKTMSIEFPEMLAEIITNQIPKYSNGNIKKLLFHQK

COCC(=O)[C@@]1(OC(C)=O)CC[C@H]2[C@@H]3CCC4=CC(=O)CCC4=C3[C@@H](c3ccc(N(C)C)cc3)C[C@@]21C [CDB-4124, 21-methoxy-17α-acetoxy-11β-(4 N, N-dimethylaminophenyl)-19-norpregna-4,9-diene-3,20-dione]
predicted Cmax for vaginal administration as percentage of the same dose administered orally ([1]; 12.5 mg dose): approximately 6.5%
predicted Cmax for vaginal administration as percentage of the same dose administered orally ([1]; 50 mg dose): approximately 2%
Cmax with 12.5 mg vaginal dose as percentage of that with 50 mg oral dose ([1]; in vivo, po): 2%
dose at which maximal inhibition occurred ([2]; oral): 0.8 mg/kg
dose at which maximal inhibition occurred ([2]; vaginal): 0.2 mg/kg
McPhail index at maximal inhibition ([2]; vaginal 0.2 mg/kg or oral 0.8 mg/kg): 1.5
systemic exposure (AUC), local (vaginal) versus oral [3]: much lower
metabolism after peak plasma concentration [3]: rapidly metabolized
metabolism [3]: metabolized slowly
peak plasma concentration (Cmax) [3]: relatively low
subjects with liver enzyme elevation reported as SAE ([4]; 25 mg CDB-4124 per day): One
subjects with liver enzyme elevation reported as SAE ([4]; 50 mg CDB-4124 per day): six
subjects in whom liver enzymes ≥3×ULN persisted ([4]; 50 mg dose): five
subjects with elevations severe enough to be reported to the FDA as SAEs ([4]; all doses): seven
subjects with increase in liver enzymes ≥3×ULN confirmed by repeat test in 48 hours ([4]; all doses): nine
subjects with increase in liver enzymes ≥3×ULN ([4]; all doses, first test): thirteen
adverse liver toxicity signals ([4]; oral, 12.5 mg, versus placebo): no adverse liver toxicity signals different from placebo
frequency and intensity of liver toxicity effects relative to 50 mg/day ([4]; oral, 25 mg/day): significantly lower in frequency and intensity
women exhibiting severe liver toxicity ([4]; oral, 50 mg/day, Phase III clinical studies): 3-4%
liver toxicity on chronic daily administration ([4]; therapeutic oral dosages, patients): exhibit liver toxicity
dose at which maximal inhibition of progesterone-induced endometrial proliferation was observed ([5]; oral): 8 mg/kg
increase in dosage required for maximal inhibition, oral versus subcutaneous ([5]; rabbit, in vivo): 8 fold
dose at which maximal inhibition of progesterone-induced endometrial proliferation was observed ([5]; subcutaneous): less than 1 mg/kg
monodemethylated metabolite detected (first pass metabolism) ([6]; after oral ingestion of CDB-4124): Large quantities; also recorded: Large amounts
Cmax ([6]; following oral administration): high
Tmax ([6]; human, in vivo, following oral administration): 1 to 2 h
maximum concentration for the 12.5 mg dose as percentage of the 50 mg dose [6]: 25%
production of the mono-demethylated metabolite [7]: rapidly produce the mono-demethylated metabolite

CNc1ccc([C@H]2C[C@@]3(C)[C@@H](CC[C@]3(OC(C)=O)C(=O)COC)[C@@H]3CCC4=CC(=O)CCC4=C32)cc1 [CDB-4453, 21-methoxy-17α-acetoxy-11β-(4-N-methylaminophenyl)-19-norpregna-4,9-diene-3,20-dione]
anti-glucocorticoid activity relative to parent CDB-4124 (glucocorticoid receptor): even lower anti-glucocorticoid activity than its parent
systemic exposure (AUC), local (vaginal) versus oral [3]: much lower
metabolism after peak plasma concentration [3]: rapidly metabolized
metabolism [3]: metabolized slowly
peak plasma concentration (Cmax) [3]: relatively low
maximum concentration for the 12.5 mg dose as percentage of the 50 mg dose [6]: 25%
